From PMC9718554, “Discovery of a fragment hit compound targeting D-Ala:D-Ala ligase of bacterial peptidoglycan biosynthesis” (Journal of Enzyme Inhibition and Medicinal Chemistry, 2022)
≈ marks a conversion by molar mass, not a printed value. Where two headings read alike, the source gives them in different places.

Columns and labels:
[1] = biological target: E. coli MurA enzyme (UDP-N-acetylglucosamine enolpyruvyl transferase) (Escherichia coli, UniProt P0A749); assay: MurA inhibition assay (malachite green, deselection); settings: read-out: MurA inhibition, RA (Residual Activity)
Procedure: Inhibition of the enzyme was determined using an end-point malachite green assay by detecting the orthophosphate formed during the enzymatic reaction. […] The final DMSO concentration was 5%. […] A parallel experiment without the enzyme was performed to detect insoluble compounds under the assay conditions and subtracted from each measurement. All experiments were performed in duplicates. RAs were calculated with respect to blank experiments without tested compounds and with 5% DMSO.

[2] = biological target: T1, DdlB from E. coli (Escherichia coli, UniProt P07862); assay: Steady-state kinetics, Ki determination against DdlB (ATP varied); type: biochemical
T1 construct: made in house; host or cells: E. coli
Procedure: Binding of 3 to DdlB was confirmed by an orthogonal biophysical assay, surface plasmon resonance (SPR). The protein was covalently attached to the surface of the CM5 chip (∼7700 response units), and the ligand was titrated across the surface (Figure 2(B)). […] Steady-state kinetics were performed to gain mechanistic insight into the inhibition of compound 3 (Supplementary Figure S3 and Table S6).
For compound 3, Ki values were determined against DdlB from E. coli. Ki determinations were performed under similar conditions as described for DdlB inhibition assay, where different concentration of one substrate and fixed concentration of the other were used. The concentration of ATP (50, 100, 200, 300 and 500 µM) was varied at fixed concentration of D-Ala (700 µM). The concentrations of compound 3 were 0, 25, 50, 100, 250, 500, and 1000 µM. After 20 min of incubation, […] of Biomol® green reagent was added, and absorbance was read at 650 nm after 5 min. Initial data were fitted to competitive, (v/V = [S]/{KM(1 + [I]/KI)+ [S]}), non-competitive (v/V = [S]/{(1 + [I]/KI)(KM+ [S])}), uncompetitive (v/V = [S]/{KM+ [S](1 + [I]/KI)}) inhibition models in which v is observed reaction rate, V is the maximum rate, KM is the Michaelis constant, using SigmaPlot 12.0 software. The best fit was taken as the one having the highest R^2, the lowest standard error and the narrowest 95% confidence interval in each parameter (see Supplementary Table S6).

[3] = tested on: E. coli D22; assay: MIC by broth microdilution; type: cell-based; settings: Escherichia coli, D22, 20 h
Procedure: (§1) The antibacterial activities of 3 were determined according to the European Committee for […] Susceptibility Testing recommendations and Clinical Laboratory Standards Institute protocol. Compound was tested against reference strains of E. coli and Staphylococcus aureus and against two mutant E. coli strains. E. coli D22 bears a mutation in the LpxC gene that increases membrane permeability, whereas E. coli N43 is an AcrA knockout strain (knockout of the cell membrane pump). […] The most plausible reason is the low on target activity of the hit fragment, however, also the poor penetration into the bacterial cell or efflux pumps effect cannot be ruled out. Although the lack of antibacterial activity is a limitation, hit compound 3 represents a fragment-sized starting point for the development of new compounds with increased DdlB inhibitory potency as well as antibacterial activity.
(§2) Minimum inhibitory concentrations (MICs) for 3 were determined by broth microdilution in Cation-adjusted Mueller-Hinton broth (MH) with TES, TREK Diagnostic Systems Ltd. against S. aureus ATCC 29213, E. coli ATCC 25922, E. coli N43 and E. coli D22. All of the experiments were performed in duplicate in 96-well plate format according to CLSI guidelines and European Committee for Antimicrobial Susceptibility Testing recommendations. The bacterial suspension of a specific bacterial strain was diluted with MH broth to obtain a final inoculum of 5 × 10^5 CFU/mL in the assay. Compound 3 dissolved in DMSO and inoculum were mixed together and incubated for 20 h at 35 °C. After incubation, the minimal inhibitory concentration (MIC) values were determined by visual inspection as the lowest dilution of compounds showing no turbidity. The MICs were determined against S. aureus (ATCC 29213), E. coli (ATCC 25922), E. coli N43, and E. coli D22 bacterial strains. D-Cycloserine was used as a positive control.

[4] = tested on: E. coli N43; assay: MIC by broth microdilution; type: cell-based; settings: Escherichia coli, N43, 20 h
Procedure: as §1, §2

[5] = tested on: E. coli ATCC 25922; assay: MIC by broth microdilution; type: cell-based; settings: for MIC: Escherichia coli
Procedure: as §1, §2

[6] = tested on: S. aureus ATCC 29213; assay: MIC by broth microdilution; type: cell-based; settings: for MIC: Staphylococcus aureus
Procedure: as §1, §2

[7] = biological target: T2, E. coli DdlB enzyme (D-alanine:D-alanine ligase) (Escherichia coli, UniProt P07862); assay: biochemical; settings: for IC50: 700 μM D-Ala, 100 μM ATP, read-out: DdlB inhibition IC50; for remaining activity at 5000 µM: at 5 mM; for remaining activity at 2100 µM: tested concentration 2.1 mM; for remaining activity at 2200 µM: tested concentration 2.2 mM; for remaining activity at 1700 µM: tested concentration 1.7 mM; for remaining activity at 2000 µM: tested concentration 2.0 mM
T2 construct: made in house; host or cells: E. coli

[8] = biological target: DdlB (Escherichia coli, UniProt P07862); assay: Surface plasmon resonance, immobilised DdlB; type: binding, E. coli; settings: steady-state affinity model, three titrations, 25 °C; read-out: apparent equilibrium dissociation constant KD
Procedure: Figure 2. Fragment hit 3 targeting DdlB. (A) Dose–response inhibition of DdlB for 3. (B) SPR analysis of 3 with the immobilised DdlB. 3 was injected across DdlB in serial dilutions ranging from 78.125 to 5000 µM for 40 s at a flow rate of 30 μL/min, and dissociation was followed for 40 s. […] (C) Data were fitted to the steady-state affinity model to obtain the apparent equilibrium dissociation constant (KD). KD values are the mean ± standard deviation of three titrations. (D) ATP (blue sticks) and D-Ala-D-Ala (white sticks) binding sites of DdlB (PDB ID: 4C5C) with the co-crystallised ligands. (E) Computational docking of 3 to the ATP-binding site using extra-precision Glide (blue sticks) and QM-Polarized Ligand Docking (orange sticks) (PDB ID: 4C5C).
Binding of 3 to DdlB was confirmed by an orthogonal biophysical assay, surface plasmon resonance (SPR). […]
The SPR measurements were performed at the Infrastructural Centre for Analysis of Molecular Interactions at the Department of Biology, University of Ljubljana on a Biacore T200 (GE Healthcare) at 25 °C. […] The data were analysed with the Biacore T200 Evaluation Software and KD was determined by fitting the data to the steady state affinity model. The average KDs and standard deviations were determined from three titrations of 3.

[9] = Solubility at tested concentrations in fragment library screening; type: physicochemical
Source text: Supplement IENZ_A_2149745_SM2502.zip/DDlB_CDR05_SI_20221103.xlsx, sheet "Fragment library screening" | column: Solubility at tested concentrations

[10] = read-out: DdlB inhibition, RA (Residual Activity)
[11] = residual activity, read-out: DdlB RA

E. coli MurA enzyme (UDP-N-acetylglucosamine enolpyruvyl transferase), sequence (P0A749 whole entry): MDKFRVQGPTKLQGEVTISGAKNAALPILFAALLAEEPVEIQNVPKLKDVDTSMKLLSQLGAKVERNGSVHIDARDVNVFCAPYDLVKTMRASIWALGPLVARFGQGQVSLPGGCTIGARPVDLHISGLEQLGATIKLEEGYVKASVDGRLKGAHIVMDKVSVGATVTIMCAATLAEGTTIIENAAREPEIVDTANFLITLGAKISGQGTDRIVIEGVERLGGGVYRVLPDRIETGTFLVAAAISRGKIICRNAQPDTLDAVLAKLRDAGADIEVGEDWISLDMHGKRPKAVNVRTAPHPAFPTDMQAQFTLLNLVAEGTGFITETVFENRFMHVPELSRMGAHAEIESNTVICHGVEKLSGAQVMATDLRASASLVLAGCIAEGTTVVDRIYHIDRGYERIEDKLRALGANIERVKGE

In the case of `Cc1cccc(-c2ccnc3c(C(=O)O)cnn23)c1` [Compound 3, 7-(m-Tolyl)pyrazolo[1,5-a]pyrimidine-3-carboxylic acid], the remaining activity at 5000 µM [1] is reported as 64%, the Ki ([2]; Competitive (full) model, best fit, ATP varied, D-Ala 700 µM) is reported as 20.7 ± 4.5 µM and the Ki ([2]; Competitive (partial) model) is reported as 20.7 ± 5.2 µM. For the same compound, the Ki ([2]; Noncompetitive (full) model) was 221 ± 21.7 µM, the inhibition mechanism ([2]; with respect to ATP) was “competitive inhibitor with respect to ATP” and the MIC [3] was greater than 128 µg/mL. The MIC [4] was greater than 128 µg/mL, the “antibacterial activity (in words)” value ([5]; E. coli) was “no antibacterial activity” and the MIC ([5]; ATCC25922, 20 h) was greater than 128 µg/mL. For the same compound, the “antibacterial activity (in words)” value ([6]; S. aureus) was “no antibacterial activity”, the MIC ([6]; ATCC29213, 20 h) was greater than 128 µg/mL and the IC50 [7] was 168 µM. It also gave a Kd [8] of 3200 µM.
`COc1ccc(-n2c(C)ccc2C)nc1` [Compound 4] showed a remaining activity at 5000 µM [1] of 39% and an IC50 [7] of 1790 µM.
With `Cc1noc(C)c1C(=O)NCC1Cn2cccc2CN1C` (centres unmarked) [Compound 5] the remaining activity at 5000 µM [1] was 6% and the remaining activity at 2500 µM ([7]; at 2.5 mM, read-out: DdlB inhibition, RA (Residual Activity)) was 28%.
`CCOc1ccc2c(n1)CCN(C(=O)c1ccccn1)C2` [Compound 6, (2-Ethoxy-7,8-dihydro-1,6-naphthyridin-6(5H)-yl)(pyridin-2-yl)methanone] gave a remaining activity at 5000 µM [1] of 104%, a remaining activity at 5000 µM [7, 10] of 25% and a remaining activity at 2100 µM [7, 11] of 44%.
Compound `Nc1ccc2ncc(C(=O)O)c(O)c2c1` [Compound 7, 6-Amino-4-hydroxyquinoline-3-carboxylic acid] has a remaining activity at 5000 µM [1] of 81% and a remaining activity at 5000 µM [7, 10] of 47%.
`COCc1cn(C2CNC2)nn1` [Compound 8] showed a remaining activity at 5000 µM [1] of 100% and a remaining activity at 5000 µM [7, 10] of 95%.
With `Cc1ccc(S(=O)(=O)N(C)CC2CCOC2)c(C)c1` (centres unmarked) [Compound S213-1641] the “Solubility at tested concentrations” value ([9]; tested concentration 2.1 mM) was “not soluble” and the remaining activity at 2100 µM [7, 11] was 110%.
With `Cc1ccccc1S(=O)(=O)Nc1cnc2c(c1)CCC2` [Compound T157-0058] the “Solubility at tested concentrations” value ([9]; tested concentration 2.1 mM) was “not soluble” and the remaining activity at 2100 µM [7, 11] was 48%.
In the case of `CC(C)Oc1n[nH]c(-c2ccc(Cl)cc2Cl)n1` [Compound V017-7311], the “Solubility at tested concentrations” value ([9]; tested concentration 2.2 mM) is reported as “not soluble” and the remaining activity at 2200 µM [7, 11] is reported as 98%.
For `CC(C)(C)OC(=O)NCc1cccc(-c2cncs2)c1` [Compound V029-2538], the “Solubility at tested concentrations” value ([9]; tested concentration 1.7 mM) was “not soluble” and the remaining activity at 1700 µM [7, 11] was 69%.
In the case of `O=S(=O)(NC1CCCCCC1)c1ccc(F)cc1` [Compound Y030-0828], the “Solubility at tested concentrations” value ([9]; tested concentration 2.0 mM) is reported as “not soluble” and the remaining activity at 2000 µM [7, 11] is reported as 89%.
In the case of `O=S(=O)(Cc1ccc(Cl)cc1)N1CCOCC1` [Compound Y031-1160], the “Solubility at tested concentrations” value ([9]; tested concentration 2.2 mM) is reported as “not soluble” and the remaining activity at 2200 µM [7, 11] is reported as 118%.
With `O=C(O)c1cnc2ccc(OC(F)(F)F)cc2c1O` [Compound Y042-3162] the “Solubility at tested concentrations” value ([9]; tested concentration 1.8 mM) was “not soluble” and the remaining activity at 1800 µM ([7]; fragment library screening, tested concentration 1.8 mM, read-out: DdlB RA) was -5%.
With `CC1CCN(C(=O)CC2(n3cccc3)CCCCC2)CC1` [Compound Y042-5984] the “Solubility at tested concentrations” value ([9]; tested concentration 1.7 mM) was “not soluble” and the remaining activity at 1700 µM [7, 11] was 90%.
In the case of `Cc1ccc(C)c(S(=O)(=O)N2CCCC(C)C2)c1` (centres unmarked) [Compound Y206-4328], the “Solubility at tested concentrations” value ([9]; tested concentration 2.2 mM) is reported as “not soluble” and the remaining activity at 2200 µM [7, 11] is reported as 116%.
In the case of `CC1CCCC(NC(=O)c2ccc(Cl)cc2)C1C` (centres unmarked) [Compound Y502-2265], the “Solubility at tested concentrations” value ([9]; tested concentration 2.3 mM) is reported as “not soluble” and the remaining activity at 2300 µM ([7]; residual activity, tested concentration 2.3 mM, read-out: DdlB RA) is reported as 91%.
In the case of `O=C(O)c1cc(-c2ccccc2)nc2c(Cl)cnn12` [Compound Y504-7719], the “Solubility at tested concentrations” value ([9]; tested concentration 2.2 mM) is reported as “not soluble” and the remaining activity at 2200 µM [7, 11] is reported as 90%.
In the case of `O=S(=O)(c1ccccc1)N1CCOc2ccccc21` [Compound Z606-0391], the “Solubility at tested concentrations” value ([9]; tested concentration 2.0 mM) is reported as “not soluble” and the remaining activity at 2000 µM [7, 11] is reported as 97%.
`N[C@@H]1CON=C1O` [D-Cyclo-serine, D-Cycloserine, reference compound] gave an MIC [3] of 16 µg/mL (≈ 157 µM), an MIC [4] of 32 µg/mL (≈ 313 µM) and an MIC ([5]; ATCC25922, E. coli ATCC 25922, 20 h at 35 °C, read-out: MIC) of 64 µg/mL (≈ 627 µM). The MIC ([6]; ATCC29213, S. aureus ATCC 29213, 20 h at 35 °C, read-out: MIC) was 32 µg/mL (≈ 313 µM) and the IC50 [7] was 108 µM.
